Source: patent publication US9073855B2, “BCL-2 selective apoptosis-inducing agents for the treatment of cancer and immune diseases” (AbbVie Inc., priority 2008, dated 2015)

How the values were obtained:
GST-Bcl-2 = GST-Bcl-2 (Homo sapiens, UniProt P10415); assay: TR-FRET binding assay, GST-Bcl-2 with F-Bak peptide probe; conditions: TR-FRET Binding Affinity, GST-Bcl-2, F-Bak peptide probe
Procedure, shortened: (§1)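 Displacement of a fluorescein-labelled Bak peptide from the GST-tagged protein was followed by time-resolved FRET with a terbium anti-GST donor after 3 h incubation at room temperature. Inhibition constants were calculated with Wang's equation.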

FL5.12/Bcl-2 cells = assay: FL5.12/Bcl-2 cell viability assay under IL-3 withdrawal (CellTitre Glo); type: cell-based, murine; conditions: Mus musculus, IL-3 withdrawn 48 hrs, then 24 hrs with compound
Procedure, shortened: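 Murine IL-3-dependent FL5.12 cells stably overexpressing Bcl-2 were deprived of IL-3 (WEHI-3B conditioned medium) for 48 h, then exposed to various compound concentrations for 24 h at 37 °C. Viability read by CellTiter-Glo luminescence.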

GST-Bcl-XL = GST-Bcl-XL (Homo sapiens, UniProt Q07817); assay: TR-FRET binding assay, GST-Bcl-XL with F-Bak peptide probe; conditions: TR-FRET Binding Affinity, GST-Bcl-XL, F-Bak peptide probe
Procedure, shortened: as §1

Chain of GST-Bcl-2 (P10415 whole entry): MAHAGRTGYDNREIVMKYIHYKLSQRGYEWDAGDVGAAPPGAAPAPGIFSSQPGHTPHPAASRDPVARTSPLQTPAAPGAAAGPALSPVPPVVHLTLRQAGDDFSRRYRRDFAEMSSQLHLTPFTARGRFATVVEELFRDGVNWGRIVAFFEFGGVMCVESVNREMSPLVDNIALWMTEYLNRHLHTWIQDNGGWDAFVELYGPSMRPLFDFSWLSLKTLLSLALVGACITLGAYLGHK
Chain of GST-Bcl-XL (Q07817 whole entry): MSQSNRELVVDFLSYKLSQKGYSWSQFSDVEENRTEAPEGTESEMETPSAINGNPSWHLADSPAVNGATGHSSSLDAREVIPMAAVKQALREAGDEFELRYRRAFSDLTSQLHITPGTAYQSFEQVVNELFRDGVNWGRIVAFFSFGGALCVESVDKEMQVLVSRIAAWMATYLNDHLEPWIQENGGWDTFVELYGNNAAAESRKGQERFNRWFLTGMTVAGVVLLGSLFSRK

SMILES | Ki (GST-Bcl-2) | EC50 (FL5.12/Bcl-2 cells) | Ki (GST-Bcl-XL)
CC1(C)CCC(CN2CCN(c3ccc(C(=O)NS(=O)(=O)c4ccc(NCC5(N)CCOCC5)c([N+](=O)[O-])c4)c(Oc4ccc5[nH]ccc5c4)c3)CC2)=C(c2ccc(Cl)cc2)C1 [Example 188, N-[(4-{[(4-aminotetrahydro-2H-pyran-4-yl)methyl]amino}-3-nitrophenyl)sulfonyl]-4-(4-{[2-(4-chlorophenyl)-4,4-dimethylcyclohex-1-en-1-yl]methyl}piperazin-1-yl)-2-(1H-indol-5-yloxy)benzamide] | 0.102 nM | 24.7 nM | 115 nM
CO[C@H]1CC[C@@H](CNc2ccc(S(=O)(=O)NC(=O)c3ccc(N4CCN(CC5=C(c6ccc(Cl)cc6)CC(C)(C)CC5)CC4)cc3Oc3ccc4[nH]ccc4c3)cc2[N+](=O)[O-])CC1 [Example 313, Cis-4-(4-{[2-(4-chlorophenyl)-4,4-dimethylcyclohex-1-en-1-yl]methyl}piperazin-1-yl)-2-(1H-indol-5-yloxy)-N-[(4-{[(4-methoxycyclohexyl)methyl]amino}-3-nitrophenyl)sulfonyl]benzamide] | 0.044 nM | 82.9 nM | 66 nM
Cn1cncc1CNc1ccc(S(=O)(=O)NC(=O)c2ccc(N3CCN(CC4=C(c5ccc(Cl)cc5)CC(C)(C)CC4)CC3)cc2Oc2ccc3[nH]ccc3c2)cc1[N+](=O)[O-] [Example 360, 4-(4-{[2-(4-chlorophenyl)-4,4-dimethylcyclohex-1-en-1-yl]methyl}piperazin-1-yl)-2-(1H-indol-5-yloxy)-N-[(4-{[(1-methyl-1H-imidazol-5-yl)methyl]amino}-3-nitrophenyl)sulfonyl]benzamide] | 0.228 nM | 106 nM | 144 nM
CC1(C)CCC(CN2CCN(c3ccc(C(=O)NS(=O)(=O)c4ccc(NC5CCC(N6CCOCC6)CC5)c([N+](=O)[O-])c4)c(Oc4ccc5[nH]ccc5c4)c3)CC2)=C(c2ccc(Cl)cc2)C1 (stereo not drawn) [Example 363, 4-(4-{[2-(4-chlorophenyl)-4,4-dimethylcyclohex-1-en-1-yl]methyl}piperazin-1-yl)-2-(1H-indol-5-yloxy)-N-({4-[(4-morpholin-4-ylcyclohexyl)amino]-3-nitrophenyl}sulfonyl)benzamide] | 0.18 nM | 86.9 nM | > 660 nM
COCCOCCNc1ccc(S(=O)(=O)NC(=O)c2ccc(N3CCN(CC4=C(c5ccc(Cl)cc5)CC(C)(C)CC4)CC3)cc2Oc2ccc3[nH]ccc3c2)cc1[N+](=O)[O-] [Example 298, 4-(4-{[2-(4-chlorophenyl)-4,4-dimethylcyclohex-1-en-1-yl]methyl}piperazin-1-yl)-2-(1H-indol-5-yloxy)-N-[(4-{[2-(2-methoxyethoxy)ethyl]amino}-3-nitrophenyl)sulfonyl]benzamide] | 0.315 nM | 19.5 nM | 446 nM
CC1(C)CCC(CN2CCN(c3ccc(C(=O)NS(=O)(=O)c4ccc(NC[C@H]5CC[C@H](O)CC5)c([N+](=O)[O-])c4)c(Oc4ccc5[nH]ccc5c4)c3)CC2)=C(c2ccc(Cl)cc2)C1 [Example 310, Trans-4-(4-{[2-(4-chlorophenyl)-4,4-dimethylcyclohex-1-en-1-yl]methyl}piperazin-1-yl)-N-[(4-{[(4-hydroxycyclohexyl)methyl]amino}-3-nitrophenyl)sulfonyl]-2-(1H-indol-5-yloxy)benzamide] | 0.049 nM | 4.51 nM | > 660 nM
CC1(C)CCC(CN2CCN(c3ccc(C(=O)NS(=O)(=O)c4cnc(OCC5CCOCC5)c(Br)c4)c(Oc4ccc5[nH]ccc5c4)c3)CC2)=C(c2ccc(Cl)cc2)C1 [Example 329, N-{[5-bromo-6-(tetrahydro-2H-pyran-4-ylmethoxy)pyridin-3-yl]sulfonyl}-4-(4-{[2-(4-chlorophenyl)-4,4-dimethylcyclohex-1-en-1-yl]methyl}piperazin-1-yl)-2-(1H-indol-5-yloxy)benzamide] | 0.285 nM | 127 nM | > 660 nM
CC1(C)CCC(CN2CCN(c3ccc(C(=O)NS(=O)(=O)c4ccc(NCCC5CCOCC5)c([N+](=O)[O-])c4)c(Oc4ccc5[nH]ccc5c4)c3)CC2)=C(c2ccc(Cl)cc2)C1 [Example 291, 4-(4-{[2-(4-chlorophenyl)-4,4-dimethylcyclohex-1-en-1-yl]methyl}piperazin-1-yl)-2-(1H-indol-5-yloxy)-N-({3-nitro-4-[(2-tetrahydro-2H-pyran-4-ylethyl)amino]phenyl}sulfonyl)benzamide] | 0.56 nM | 58 nM | > 660 nM
CC1(C)CCC(CN2CCN(c3ccc(C(=O)NS(=O)(=O)c4ccc(NC5CCN(Cc6cscn6)CC5)c([N+](=O)[O-])c4)c(Oc4ccc5[nH]ccc5c4)c3)CC2)=C(c2ccc(Cl)cc2)C1 [Example 231, 4-(4-{[2-(4-chlorophenyl)-4,4-dimethylcyclohex-1-en-1-yl]methyl}piperazin-1-yl)-2-(1H-indol-5-yloxy)-N-[(3-nitro-4-{[1-(1,3-thiazol-4-ylmethyl)piperidin-4-yl]amino}phenyl)sulfonyl]benzamide] | 0.918 nM | 50.9 nM | > 660 nM
CC1(C)CCC(CN2CCN(c3ccc(C(=O)NS(=O)(=O)c4ccc(NC5CCN(C6CCOCC6)CC5)c([N+](=O)[O-])c4)c(Oc4ccc5[nH]ccc5c4)c3)CC2CO)=C(c2ccc(Cl)cc2)C1 (stereo not drawn) [Example 219, 4-[4-{[2-(4-chlorophenyl)-4,4-dimethylcyclohex-1-en-1-yl]methyl}-3-(hydroxymethyl)piperazin-1-yl]-2-(1H-indol-5-yloxy)-N-({3-nitro-4-[(1-tetrahydro-2H-pyran-4-ylpiperidin-4-yl)amino]phenyl}sulfonyl)benzamide] | 0.236 nM | 23 nM | 29.9 nM
O=C(NS(=O)(=O)c1ccc(NCC2CCOCC2)c([N+](=O)[O-])c1)c1ccc(N2CCN(CC3=C(c4ccc(Cl)cc4)CCC(O)C3)CC2)cc1Oc1ccc2[nH]ccc2c1 (stereo not drawn) [Example 248, 4-(4-{[2-(4-chlorophenyl)-5-hydroxycyclohex-1-en-1-yl]methyl}piperazin-1-yl)-2-(1H-indol-5-yloxy)-N-({3-nitro-4-[(tetrahydro-2H-pyran-4-ylmethyl)amino]phenyl}sulfonyl)benzamide] | 0.013 nM | 49.8 nM | 155 nM
CC1(C)CCC(CN2CCN(c3ccc(C(=O)NS(=O)(=O)c4ccc(NCCCN5CCCC5=O)c([N+](=O)[O-])c4)c(Oc4ccc5[nH]ccc5c4)c3)CC2)=C(c2ccc(Cl)cc2)C1 [Example 374, 4-(4-{[2-(4-chlorophenyl)-4,4-dimethylcyclohex-1-en-1-yl]methyl}piperazin-1-yl)-2-(1H-indol-5-yloxy)-N-[(3-nitro-4-{[3-(2-oxopyrrolidin-1-yl)propyl]amino}phenyl)sulfonyl]benzamide] | 2.27 nM | > 500 nM | > 660 nM
CC1(C)CCC(CN2CCN(c3ccc(C(=O)NS(=O)(=O)c4ccc(OCCCS(C)(=O)=O)c([N+](=O)[O-])c4)c(Oc4cccc5[nH]ccc45)c3)CC2)=C(c2ccc(Cl)cc2)C1 [Example 316, 4-(4-{[2-(4-chlorophenyl)-4,4-dimethylcyclohex-1-en-1-yl]methyl}piperazin-1-yl)-2-(1H-indol-4-yloxy)-N-({4-[3-(methylsulfonyl)propoxy]-3-nitrophenyl}sulfonyl)benzamide] | 0.149 nM | 67.5 nM | 79.5 nM
CC(C)C[C@@H](CO)Nc1ccc(S(=O)(=O)NC(=O)c2ccc(N3CCN(CC4=C(c5ccc(Cl)cc5)CC(C)(C)CC4)CC3)cc2Oc2ccc3[nH]ccc3c2)cc1[N+](=O)[O-] [Example 369, 4-(4-{[2-(4-chlorophenyl)-4,4-dimethylcyclohex-1-en-1-yl]methyl}piperazin-1-yl)-N-[(4-{[(1S)-1-(hydroxymethyl)-3-methylbutyl]amino}-3-nitrophenyl)sulfonyl]-2-(1H-indol-5-yloxy)benzamide] | 838 nM | > 500 nM | > 660 nM
C[C@H](c1ccccc1-c1ccc(Cl)cc1)N1CCN(c2ccc(C(=O)NS(=O)(=O)c3ccc(NCC4CCOCC4)c([N+](=O)[O-])c3)c(Oc3cccc4[nH]ccc34)c2)CC1 [Example 255, 4-{4-[(1R)-1-(4′-chloro-1,1′-biphenyl-2-yl)ethyl]piperazin-1-yl}-2-(1H-indol-4-yloxy)-N-({3-nitro-4-[(tetrahydro-2H-pyran-4-ylmethyl)amino]phenyl}sulfonyl)benzamide] | 7.83 nM | > 500 nM | > 660 nM
CC(C)[C@H](CO)Nc1ccc(S(=O)(=O)NC(=O)c2ccc(N3CCN(CC4=C(c5ccc(Cl)cc5)CC(C)(C)CC4)CC3)cc2Oc2ccc3[nH]ccc3c2)cc1[N+](=O)[O-] [Example 371, 4-(4-{[2-(4-chlorophenyl)-4,4-dimethylcyclohex-1-en-1-yl]methyl}piperazin-1-yl)-N-[(4-{[(1R)-1-(hydroxymethyl)-2-methylpropyl]amino}-3-nitrophenyl)sulfonyl]-2-(1H-indol-5-yloxy)benzamide] | 8.38 nM | > 500 nM | > 660 nM
CC(C)(C)c1ccc(CN2CCN(c3ccc(C(=O)NS(=O)(=O)c4ccc(OCC5CCOCC5)c([N+](=O)[O-])c4)c(Oc4ccc5[nH]ccc5c4)c3)CC2)c(-c2ccc(Cl)cc2)c1 [Example 342, 4-{4-[(5-tert-butyl-4′-chloro-1,1′-biphenyl-2-yl)methyl]piperazin-1-yl}-2-(1H-indol-5-yloxy)-N-{[3-nitro-4-(tetrahydro-2H-pyran-4-ylmethoxy)phenyl]sulfonyl}benzamide] | 25.8 nM | > 500 nM | > 660 nM
